{
  "source": "patent US20220089575A1",
  "about": "“FARNESOID X RECEPTOR AGONISTS AND USES THEREOF” (Metacrine, Inc., priority 2017, published 2022)",
  "data": [
    {"target": "T1, hFXR (Homo sapiens, UniProt Q96RI1)", "T1 construct": "expressed in transfected cells; host or cells: CV-1 cells", "T1 sequence (Q96RI1 1-486)": "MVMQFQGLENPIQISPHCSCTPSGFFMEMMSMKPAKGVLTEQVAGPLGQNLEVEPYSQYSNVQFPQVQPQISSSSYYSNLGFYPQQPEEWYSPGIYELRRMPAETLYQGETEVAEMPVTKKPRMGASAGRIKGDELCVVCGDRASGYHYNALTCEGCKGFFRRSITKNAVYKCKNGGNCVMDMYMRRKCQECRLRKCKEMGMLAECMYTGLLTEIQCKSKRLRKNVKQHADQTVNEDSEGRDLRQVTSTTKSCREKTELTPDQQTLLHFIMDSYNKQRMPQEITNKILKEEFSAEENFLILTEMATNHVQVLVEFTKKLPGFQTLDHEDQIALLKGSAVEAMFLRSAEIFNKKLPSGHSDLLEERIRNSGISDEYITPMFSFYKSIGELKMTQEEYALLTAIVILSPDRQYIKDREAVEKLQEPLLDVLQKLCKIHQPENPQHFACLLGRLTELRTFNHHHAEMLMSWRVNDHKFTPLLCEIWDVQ", "T1 sequence (P19793 1-462 partner)": "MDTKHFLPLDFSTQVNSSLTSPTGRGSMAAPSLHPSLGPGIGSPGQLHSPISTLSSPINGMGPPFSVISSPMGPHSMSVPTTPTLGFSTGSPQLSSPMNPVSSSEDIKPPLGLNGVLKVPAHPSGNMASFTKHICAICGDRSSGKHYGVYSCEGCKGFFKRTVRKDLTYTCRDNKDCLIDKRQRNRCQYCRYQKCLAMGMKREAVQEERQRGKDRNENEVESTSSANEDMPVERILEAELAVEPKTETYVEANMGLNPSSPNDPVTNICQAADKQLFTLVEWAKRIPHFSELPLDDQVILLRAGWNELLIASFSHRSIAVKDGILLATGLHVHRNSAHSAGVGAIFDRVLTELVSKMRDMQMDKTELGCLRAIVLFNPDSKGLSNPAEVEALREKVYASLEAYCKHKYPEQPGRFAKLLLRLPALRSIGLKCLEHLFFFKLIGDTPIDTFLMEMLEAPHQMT", "assay": "In Vitro FXR Assay (TK): TK-ECRE-luc reporter in transfected CV-1 cells", "assay_type": "cell-based", "settings": "18 hrs, luminescence, maximum efficacy of <25% of the Fexarmine control classified as '+'", "method_in_brief": "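Transiently transfected monkey CV-1 cells (hFXR, hRXR, TK-ECRE-luciferase, YFP control plasmid), held in stripped-serum DMEM, received compound dilutions from DMSO for 18 h at 37 °C. Activity was taken from luminescence of the cell lysates.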", "units": {"EC50": "µM"}, "values": [
      {"smiles": "COc1ccc([C@H]2CC[C@H](CN(c3cccc(-c4cnc(C5CC5)s4)c3)C(=O)[C@H]3CC[C@H](NC(=O)COCCCO)CC3)CC2)cc1C", "note": "[Compound 32.03, trans-N-(3-(2-Cyclopropylthiazol-5-yl)phenyl)-4-(2-(3-hydroxypropoxy)acetamido)-N-((trans-4-(4-methoxy-3-methylphenyl)cyclohexyl)methyl)cyclohexanecarboxamide]", "EC50": "≤ 0.25"},
      {"smiles": "COc1ccc([C@H]2CC[C@H](CN(c3cccc(-c4cnc(C5CC5)s4)c3)C(=O)[C@H]3CC[C@H](NC(=O)COCCN(C)C)CC3)CC2)cc1C", "note": "[Compound 32.04, trans-N-(3-(2-Cyclopropylthiazol-5-yl)phenyl)-4-(2-(2-(dimethylamino)ethoxy)acetamido)-N-((trans-4-(4-methoxy-3-methylphenyl)cyclohexyl)methyl) cyclohexanecarboxamide]", "EC50": "≤ 0.25"},
      {"smiles": "COc1ccc([C@H]2CC[C@H](CN(c3cccc(-c4cnc(C5CC5)s4)c3)C(=O)[C@H]3CC[C@H](NC(=O)COCCN)CC3)CC2)cc1C", "note": "[Compound 32.05, trans-4-(2-(2-Aminoethoxy)acetamido)-N-(3-(2-cyclopropylthiazol-5-yl)phenyl)-N-((trans-4-(4-methoxy-3-methylphenyl)cyclohexyl)methyl) cyclohexanecarboxamide]", "EC50": "0.25 to 1"},
      {"smiles": "CNCCOCC(=O)N[C@H]1CC[C@H](C(=O)N(C[C@H]2CC[C@H](c3ccc(OC)c(C)c3)CC2)c2cccc(-c3cnc(C4CC4)s3)c2)CC1", "note": "[Compound 32.06, trans-N-(3-(2-Cyclopropylthiazol-5-yl)phenyl)-N-((trans-4-(4-methoxy-3-methylphenyl)cyclohexyl)methyl)-4-(2-(2-(methylamino)ethoxy)acetamido) cyclohexanecarboxamide]", "EC50": "≥ 1"},
      {"smiles": "COc1ccc([C@H]2CC[C@H](CN(c3cccc(-c4cnc(C5CC5)s4)c3)C(=O)[C@H]3CC[C@H](c4nnn[nH]4)CC3)CC2)cc1C", "note": "[Compound 33, trans-N-(3-(2-Cyclopropylthiazol-5-yl)phenyl)-N-((trans-4-(4-methoxy-3-methylphenyl)cyclohexyl)methyl)-4-(2H-tetrazol-5-yl)cyclohexanecarboxamide]", "EC50": "≤ 0.25"},
      {"smiles": "COc1ccc([C@H]2CC[C@H](CN(c3cccc(-c4cnn(C5CC5)c4)c3)C(=O)[C@H]3CC[C@H](c4nnn[nH]4)CC3)CC2)cc1C", "note": "[Compound 33.01, trans-N-(3-(1-Cyclopropyl-1H-pyrazol-4-yl)phenyl)-N-((trans-4-(4-methoxy-3-methylphenyl)cyclohexyl)methyl)-4-(2H-tetrazol-5-yl) cyclohexanecarboxamide]", "EC50": "≤ 0.25"},
      {"smiles": "COc1ccc([C@H]2CC[C@H](CN(c3cccc(-c4cnn(C5CC5)c4)c3)C(=O)[C@H]3CC[C@H](c4noc(=O)[nH]4)CC3)CC2)cc1C", "note": "[Compound 34, trans-N-(3-(1-Cyclopropyl-1H-pyrazol-4-yl)phenyl)-N-((trans-4-(4-methoxy-3-methylphenyl)cyclohexyl)methyl)-4-(5-oxo-4,5-dihydro-1,2,4-oxadiazol-3-yl)cyclohexanecarboxamide]", "EC50": "≤ 0.25"}
    ]}
  ]
}
